Structures can show the parent of a compound that is named as a salt.
Biological target: cloned human kappa receptor (Homo sapiens, UniProt P41145)
Assay: biochemical
Type: binding
Settings: not given

cloned human kappa receptor, sequence (P41145 whole entry): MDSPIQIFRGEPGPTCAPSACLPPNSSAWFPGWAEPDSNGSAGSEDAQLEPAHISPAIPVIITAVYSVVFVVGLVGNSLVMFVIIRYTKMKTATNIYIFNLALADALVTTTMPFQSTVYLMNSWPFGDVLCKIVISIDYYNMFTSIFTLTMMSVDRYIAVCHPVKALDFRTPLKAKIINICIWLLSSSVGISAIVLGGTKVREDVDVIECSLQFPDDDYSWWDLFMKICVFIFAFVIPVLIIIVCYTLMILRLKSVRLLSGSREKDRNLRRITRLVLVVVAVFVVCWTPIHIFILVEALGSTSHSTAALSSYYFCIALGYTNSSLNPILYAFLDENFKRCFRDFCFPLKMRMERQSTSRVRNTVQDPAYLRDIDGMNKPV

Compound	[3H]-Diprenorphin, % @ 1 μM [% @ 1 μM]
(±)-trans-3-N-Methyl-N-[2-(1-pyrrolidinyl)cyclohexyl]-(trans-3-furyl)acetamide hydrochloride [Example 4f]	0

Same assay, conditions: Ki (nM) [3H]-Diprenorphin κ

Compound	Ki [nM]
COc1cc(CC(=O)N(C)[C@H](CN2CCCC2)c2ccccc2)c(S(=O)(=O)N(C)CC(=O)O)cc1OC [Example 142, N-Methyl-[[2-(N-sulfamoyl)-4,5-dimethoxyphenyl]-N-methyl-N-[(1S)-1-phenyl-2-[1-(pyrrolidinyl)ethyl]]acetamido]glycine]	13
COc1cc(CC(=O)N(C)[C@H](CN2CCCC2)c2ccccc2)c(S(=O)(=O)N(C)Cc2ccccc2)cc1OC [Example 148, 2-[2-(N-Benzyl-N-methylsulfamoyl)-4,5-dimethoxyphenyl]-N-methyl-N-[(1S)-1-phenyl-2-[(1-pyrrolidinyl)ethyl]]acetamide]	0.83

Same assay, conditions: read-out: Ki(nM) [3H]-Diprenorphin κ

Compound	Ki [nM]
COc1cc(CC(=O)N(C)[C@H](CN2CCCC2)c2ccccc2)c(S(=O)(=O)NC(C)(C)C)c(OC)c1OC [Example 144, 2-[2-(N-t-Butylsulfamoyl)-3,4,5-trimethoxyphenyl]-N-methyl-N-[(1S)-1-phenyl-2-[(1-pyrrolidinyl)ethyl]]acetamide]	0.17

Tested on: not given
Assay: not given
Settings: not given

Compound	melting point
COc1cc(CC(=O)N(C)[C@H](CN2CC[C@H](O)C2)c2ccccc2)cc(OC)c1OC.Cl	230 to 232 °C
Cl.NS(=O)(=O)N1CCN(C(=O)Cc2ccc(Cl)c(Cl)c2)[C@H](CN2CCCC2)C1	183 to 185 °C
CN(C(=O)Cc1ccccc1[N+](=O)[O-])[C@H](CN1CCCC1)c1cccc([N+](=O)[O-])c1 (as salt: HCl)	258 to 259 °C
CN(C(=O)Cc1ccccc1N)[C@H](CN1CCCC1)c1cccc(N)c1 (as salt: HCl)	219 to 222 °C
CN(C(=O)Cc1cc(Cl)c(Cl)cc1[N+](=O)[O-])[C@H](CN1CCCC1)c1cccc([N+](=O)[O-])c1 (as salt: HCl)	165 °C (dec.)
CN(C(=O)Cc1ccc(S(C)(=O)=O)cc1)[C@H](CN1CCCC1)c1cccc([N+](=O)[O-])c1 (as salt: HCl)	276 to 277 °C
CCCCOC(=O)Nc1ccc(CC(=O)N(C)[C@H](CN2CCCC2)c2cccc([N+](=O)[O-])c2)cc1 (as salt: HCl)	170 °C (dec.)
CN(C(=O)Cc1ccccc1NCC(=O)O)C1CCCCC1N1CCCC1 (centres unmarked) (as salt: HCl)	212 to 214 °C (dec.)
CN(C(=O)Cc1ccc(C(F)(F)F)cc1NCC(=O)O)C1CCCCC1N1CCCC1 (centres unmarked) (as salt: HCl)	178 to 180 °C (dec.)
CN(C(=O)Cc1ccc(N)cc1)[C@H](CN1CCCC1)c1cccc([N+](=O)[O-])c1 (as salt: HCl)	200 °C (dec.)
CN(C(=O)Cc1ccc(OCc2ccccc2)c(NS(C)(=O)=O)c1)[C@H](CN1CCCC1)c1ccccc1 (as salt: HCl) [Example 123, 2-(3-N-Methylsulfonamido-3-amino-4-benzyloxyphenyl)-N-methyl-N-[(1S)-1-phenyl-2-(1-pyrrolidinyl)ethyl]acetamide]	219 to 221 °C
CN(C(=O)Cc1ccc(O)c(NS(C)(=O)=O)c1)[C@H](CN1CCCC1)c1ccccc1 (as salt: HCl) [Example 124, 2-(3-N-Methylsulfonamido-3-amino-4-hydroxyphenyl)-N-methyl-N-[(1S)-1-phenyl-2-(1-pyrrolidinyl)ethyl]acetamide]	228 to 230 °C
CN(C(=O)Cc1ccccc1NS(C)(=O)=O)[C@H](CN1CC[C@H](O)C1)c1ccccc1 (as salt: HCl) [Example 125, 2-(2-N-Methylsulfonamido-2-aminophenyl)-N-methyl-N-[(1S)-1-phenyl-2-[1-(3S)-(3-hydroxypyrrolidinyl)ethyl]]acetamide]	168 to 171 °C
CN(C(=O)Cc1ccc(C(F)(F)F)cc1NS(C)(=O)=O)[C@H](CN1CC[C@H](O)C1)c1ccccc1 (as salt: HCl) [Example 126, 2-(2-N-Methylsulfonamido-2-amino-4-trifluoromethylphenyl)-N-methyl-N-[(1S)-1-phenyl-2-[1-(3S)-(3-hydroxypyrrolidinyl)ethyl]]acetamide]	178 to 181 °C
COc1ccc(CC(=O)N(C)[C@H](CN2CC[C@H](O)C2)c2ccccc2)cc1NS(C)(=O)=O (as salt: HCl) [Example 127, 2-(3-N-Methylsulfonamido-3-amino-4-methoxyphenyl)-N-methyl-N-[(1S)-1-phenyl-2-[1-(3S)-(3-hydroxypyrrolidinyl)ethyl]]acetamide]	148 to 151 °C
CN(C(=O)Cc1cc2c(cc1S(=O)(=O)N(C)C)OCO2)[C@H](CN1CCCC1)c1ccccc1 (as salt: HCl) [Example 132, 2-[2-(N-Dimethylsulfamoyl)-4,5-methylenedioxyphenyl]-N-methyl-N-[(1S)-1-phenyl-2-[(1-pyrrolidinyl)ethyl]]acetamide]	269 to 271 °C

Compound	melting point
COc1cc(CC(=O)N(C)[C@H](CN2CCCC2)c2ccccc2)c(S(=O)(=O)N2CCCC2)cc1OC (as salt: HCl) [Example 134, 2-[2-(N-Pyrrolidinesulfamoyl)-4,5-dimethoxyphenyl]-N-methyl-N-[(1S)-1-phenyl-2-[(1-pyrrolidinyl)ethyl]]acetamide]	240 to 242 °C
COc1cc(CC(=O)N(C)[C@H](CN2CCCC2)c2ccccc2)c(S(=O)(=O)N(C)C)cc1OC (as salt: HCl) [Example 136, 2-[2-(N-Dimethylsulfamoyl)-4,5-dimethoxyphenyl]-N-methyl-N-[(1S)-1-phenyl-2-[(1-pyrrolidinyl)ethyl]]acetamide]	246 to 248 °C
COc1cc(CC(=O)N(C)[C@H](CN2CCCC2)c2ccccc2)c(S(=O)(=O)N2CCN(C)CC2)cc1OC (as salt: HCl) [Example 138]	255 to 257 °C (dec.)
COc1cc(CC(=O)N(C)[C@H](CN2CC[C@H](O)C2)c2ccccc2)c(S(=O)(=O)N2CCN(C)CC2)cc1OC (as salt: HCl) [Example 139]	168 to 171 °C
COc1cc(CC(=O)N(C)[C@H](CN2CCCC2)c2ccccc2)c(S(=O)(=O)N2CCOCC2)cc1OC (as salt: HCl) [Example 140, 2-[2-N-(Morpholinesulfamoyl)-4,5-dimethoxyphenyl]-N-methyl-N-[(1S)-1-phenyl-2-[1-(pyrrolidinyl)ethyl]]acetamide]	229 to 231 °C
COc1cc(CC(=O)N(C)[C@H](CN2CC[C@H](O)C2)c2ccccc2)c(S(=O)(=O)N2CCOCC2)cc1OC (as salt: HCl) [Example 141, 2-[2-N-(Morpholinesulfamoyl)-4,5-dimethoxyphenyl]-N-methyl-N-[(1S)-1-phenyl-2-[1-(3S)-(3-hydroxypyrrolidinyl)ethyl]]acetamide]	158 to 161 °C
COc1cc(CC(=O)N(C)[C@H](CN2CCCC2)c2ccccc2)c(S(=O)(=O)N(C)CC(=O)O)cc1OC (as salt: HCl) [Example 142, N-Methyl-[[2-(N-sulfamoyl)-4,5-dimethoxyphenyl]-N-methyl-N-[(1S)-1-phenyl-2-[1-(pyrrolidinyl)ethyl]]acetamido]glycine]	231 to 233 °C (dec.)
COc1cc(CC(=O)N(C)[C@H](CN2CCCC2)c2ccccc2)c(S(=O)(=O)N(C)Cc2ccccc2)cc1OC (as salt: HCl) [Example 148, 2-[2-(N-Benzyl-N-methylsulfamoyl)-4,5-dimethoxyphenyl]-N-methyl-N-[(1S)-1-phenyl-2-[(1-pyrrolidinyl)ethyl]]acetamide]	188 to 189 °C
CCOP(=O)(OCC)N1CCN(C(=O)Cc2ccc(Cl)c(Cl)c2)[C@H](CN2CCCC2)C1 (as salt: hydrochloride) [(R-3g), (R)-4-(Diethoxyphosphonate)-1-[(3,4-dichlorophenyl)acetyl]-2-[(1-pyrolidinyl)methyl]-piperazine hydrochloride]	168 to 170 °C
O=C(Cc1ccc(Cl)c(Cl)c1)N1CCN(C(=O)C(F)(F)F)C[C@H]1CN1CCCC1 (as salt: hydrochloride) [(R-3h), (R)-4-Trifluoroacetyl-1-(3,4-dichlorophenyl)acetyl]-2-[(1-pyrrolidinyl)methyl]-piperazine hydrochloride]	145 to 147 °C
Cc1ccc(S(=O)(=O)N2CCN(C(=O)Cc3ccc(Cl)c(Cl)c3)[C@H](CN3CCCC3)C2)cc1 (as salt: hydrochloride) [(R-3l), (R)-4-(4-Methyphenylsulfonyl)-1-[(3,4-dichlorophenyl)acetyl]-2-[(1-Pyrrolidinyl)methyl]-piperazine hydrochloride]	240 °C (dec.)
CS(=O)(=O)O[C@H]1CCN(CC2CN(S(C)(=O)=O)CCN2C(=O)Cc2ccc(Cl)c(Cl)c2)C1 (stereo partly drawn) (as salt: hydrochloride) [Example 1jj, 4-Methanesulfonyl-1-[(3,4-dichlorophenyl)acetyl]-2-(R,S)-[3-(S)-methanesulfonate-1-(pyrrolidinyl)methyl]piperazine hydrochloride]	130 to 132 °C
CN(C(=O)Cc1ccc(C(F)(F)F)cc1NCC(=O)O)[C@H](CN1CCCC1)c1ccccc1 (as salt: hydrochloride) [Example 3b, N-[(4-Trifluoromethylphenyl)-N-methyl-N-{[1S]-1-phenyl-2-[1-pyrrolidinyl)]ethyl}acetamido]glycine hydrochloride]	228 to 230 °C (dec.)
CCOP(=O)(Nc1cccc([C@@H](CN2CCCC2)N(C)C(=O)Cc2ccc(Cl)c(Cl)c2)c1)OCC (as salt: hydrochloride) [Example 3g, 2-(3,4-Dichlorophenyl)-N-methyl-N-[(1S)-1-[3-(diethyl Phosphoryl)amino]phenyl)-2-(1-pyrrolidinyl)ethyl]acetamide hydrochloride]	140 to 142 °C
CN(C(=O)Cc1ccc(Cl)c(Cl)c1)[C@H](CN1CCCC1)c1cccc(NC(=O)CCC(=O)NCC(=O)O)c1 (as salt: hydrochloride) [Example 3j, 2-(3,4-Dichlorophenyl)-N-methyl-N-{(1R,S)-1-[3-(3-(((hydroxycarbonyl)-methyl)aminocarbonyl)propionamido)phenyl]-2-(1-pyrrolidinyl)ethyl}acetamide hydrochloride]	158 °C (dec.)

From US20050020576A1, “Kappa agonist compounds and pharmaceutical formulations thereof” (priority 1996, published 2005)
